Results on 2 compounds are retold here after patent US20080176936A1, “Classes of Compounds that Interact with Integrins” (priority 2005, published 2008).

For one experiment, the target named is T1, αVβ3 integrin (Homo sapiens, UniProt P05106+P06756).
T1 construct: the cell line WM-115 was used as a source of αVβ3 integrin; endogenous in cells; host or cells: WM-115 cell line
In words: ELISA: inhibition of binding of αVβ3 integrin (source WM-115 cell line) to coated extracellular matrix protein. The following applies: WM-115 cell line as integrin source. In outline: (§1)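 Integrin sources were human platelet membrane preparations for αIIbβ3 and WM-115 cells for αVβ3, each preincubated with test compound. Binding to fibrinogen- or vitronectin-coated plates (10 µg/well) was quantified with an anti-integrin β3 antibody and an HRP-coupled secondary antibody using colorimetric detection.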
(In general: An ELISA detects its analyte on a solid surface through an enzyme-linked reagent.)

The target of another experiment is T2, αllbβ3 integrin (Homo sapiens, UniProt P05106+P08514).
T2 construct: Human platelet membrane preparations were used as a source of αllbβ3 integrin; from tissue; host or cells: human platelets (membrane preparation)
T2 sequence (P08514 32-887 limits assumed): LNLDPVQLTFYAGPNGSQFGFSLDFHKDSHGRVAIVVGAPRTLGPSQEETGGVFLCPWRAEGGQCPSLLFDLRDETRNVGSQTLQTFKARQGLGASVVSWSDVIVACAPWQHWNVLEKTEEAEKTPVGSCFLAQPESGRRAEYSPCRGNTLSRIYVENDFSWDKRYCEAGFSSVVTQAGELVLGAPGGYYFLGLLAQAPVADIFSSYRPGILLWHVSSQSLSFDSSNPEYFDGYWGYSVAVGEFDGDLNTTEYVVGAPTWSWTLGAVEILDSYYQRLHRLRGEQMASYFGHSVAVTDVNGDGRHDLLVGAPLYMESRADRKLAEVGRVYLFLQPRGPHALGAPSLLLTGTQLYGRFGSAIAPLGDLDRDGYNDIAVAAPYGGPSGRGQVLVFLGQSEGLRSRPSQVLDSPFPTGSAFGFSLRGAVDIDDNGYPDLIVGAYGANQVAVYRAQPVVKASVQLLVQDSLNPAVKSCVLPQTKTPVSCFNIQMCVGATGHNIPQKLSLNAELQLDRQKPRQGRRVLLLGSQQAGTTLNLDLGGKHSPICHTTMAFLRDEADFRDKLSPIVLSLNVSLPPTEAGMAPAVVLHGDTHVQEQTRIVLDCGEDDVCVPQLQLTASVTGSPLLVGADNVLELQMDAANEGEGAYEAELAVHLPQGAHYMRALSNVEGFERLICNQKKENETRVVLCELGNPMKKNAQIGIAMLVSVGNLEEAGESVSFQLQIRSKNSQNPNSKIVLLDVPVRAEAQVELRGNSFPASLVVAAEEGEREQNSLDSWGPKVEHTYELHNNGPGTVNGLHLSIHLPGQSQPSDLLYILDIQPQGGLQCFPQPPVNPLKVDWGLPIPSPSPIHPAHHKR
T2 sequence (P08514 891-1039 partner limits assumed): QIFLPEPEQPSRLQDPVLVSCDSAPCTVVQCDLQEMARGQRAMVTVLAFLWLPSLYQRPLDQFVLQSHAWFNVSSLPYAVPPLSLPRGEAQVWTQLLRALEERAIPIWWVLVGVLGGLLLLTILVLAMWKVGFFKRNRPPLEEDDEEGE
T2 sequence (P05106 27-788): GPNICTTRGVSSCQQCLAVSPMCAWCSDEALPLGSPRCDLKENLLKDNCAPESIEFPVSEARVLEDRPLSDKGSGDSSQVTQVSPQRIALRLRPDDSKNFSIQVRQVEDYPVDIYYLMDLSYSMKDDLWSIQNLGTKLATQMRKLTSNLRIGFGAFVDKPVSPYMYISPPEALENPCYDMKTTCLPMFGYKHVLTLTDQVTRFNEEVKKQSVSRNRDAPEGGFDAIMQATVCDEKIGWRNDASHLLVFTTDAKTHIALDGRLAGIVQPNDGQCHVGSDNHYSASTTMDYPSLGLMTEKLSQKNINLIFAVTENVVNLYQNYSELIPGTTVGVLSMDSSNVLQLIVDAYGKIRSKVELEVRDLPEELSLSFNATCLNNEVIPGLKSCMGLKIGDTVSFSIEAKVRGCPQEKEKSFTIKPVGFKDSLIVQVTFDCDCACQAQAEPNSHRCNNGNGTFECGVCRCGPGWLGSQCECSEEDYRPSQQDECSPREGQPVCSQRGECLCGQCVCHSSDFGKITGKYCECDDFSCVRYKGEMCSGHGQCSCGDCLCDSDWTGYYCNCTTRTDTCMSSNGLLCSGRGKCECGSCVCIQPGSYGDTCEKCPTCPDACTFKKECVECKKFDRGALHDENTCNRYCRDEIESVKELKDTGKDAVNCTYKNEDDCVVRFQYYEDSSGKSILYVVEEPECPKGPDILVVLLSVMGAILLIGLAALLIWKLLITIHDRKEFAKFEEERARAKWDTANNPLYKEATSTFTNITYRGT
In words: ELISA: inhibition of binding of αllbβ3 integrin membrane preparation to coated extracellular matrix protein. The settings on record: human platelet membrane preparation. In outline: as §1

Each structure is given as a SMILES string.

T1 sequence (P06756 31-889 limits assumed): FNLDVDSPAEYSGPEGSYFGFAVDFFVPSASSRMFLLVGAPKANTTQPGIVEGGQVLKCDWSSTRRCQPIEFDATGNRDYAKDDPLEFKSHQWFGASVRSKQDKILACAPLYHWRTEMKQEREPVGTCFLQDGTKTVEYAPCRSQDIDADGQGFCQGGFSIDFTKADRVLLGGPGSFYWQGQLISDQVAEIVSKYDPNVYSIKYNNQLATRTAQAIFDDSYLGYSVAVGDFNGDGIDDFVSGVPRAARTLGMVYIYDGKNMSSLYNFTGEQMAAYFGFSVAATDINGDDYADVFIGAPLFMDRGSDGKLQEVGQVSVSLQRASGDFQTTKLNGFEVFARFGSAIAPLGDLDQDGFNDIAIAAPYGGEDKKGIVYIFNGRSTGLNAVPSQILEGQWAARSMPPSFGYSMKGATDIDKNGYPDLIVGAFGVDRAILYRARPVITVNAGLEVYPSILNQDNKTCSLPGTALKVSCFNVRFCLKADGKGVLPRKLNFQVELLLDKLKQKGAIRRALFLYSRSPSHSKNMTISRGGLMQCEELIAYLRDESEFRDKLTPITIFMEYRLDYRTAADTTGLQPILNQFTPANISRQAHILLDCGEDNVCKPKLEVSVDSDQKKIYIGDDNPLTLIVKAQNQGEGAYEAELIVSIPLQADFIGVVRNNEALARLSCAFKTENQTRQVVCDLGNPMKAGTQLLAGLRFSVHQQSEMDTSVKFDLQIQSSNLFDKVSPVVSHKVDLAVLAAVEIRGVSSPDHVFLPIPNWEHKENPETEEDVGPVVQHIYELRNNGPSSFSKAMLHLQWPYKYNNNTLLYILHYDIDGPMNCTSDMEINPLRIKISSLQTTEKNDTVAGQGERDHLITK
T1 sequence (P06756 891-1048 partner limits assumed): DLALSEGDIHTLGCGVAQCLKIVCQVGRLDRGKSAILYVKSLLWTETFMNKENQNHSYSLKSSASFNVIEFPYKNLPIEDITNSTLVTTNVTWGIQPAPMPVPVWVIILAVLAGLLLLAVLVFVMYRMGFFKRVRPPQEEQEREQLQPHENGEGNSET
T1 sequence (P05106 27-788): as the sequence (P05106 27-788) above

`COC1OC(COCc2cccc(N)c2)C(O)C(OCc2ccc(C(=O)O)cc2)C1NC(=O)c1ccccc1` (single isomer, unassigned) [Compound 19]: the “INHIBITION 250 uM RECEPTOR aVb3 SUBSTRATE FIBRINOGEN” value at αVβ3 integrin is on record as “+++ (81% to 100% inhibition at 250 micromolar)”. At αllbβ3 integrin, the “INHIBITION @ 250 uM RECEPTOR allBb3 SUBSTRATE FIBRINOGEN” value is “++ (61% to 80% inhibition at 250 micromolar)” and the “INHIBITION 250 uM RECEPTOR allBb3 SUBSTRATE VITRONECTIN” value is recorded as “+++ (81% to 100% inhibition at 250 micromolar)”.
With `COC1OC(COCC(=O)O)C(O)C(OCc2cccc(N)c2)C1NC(=O)c1ccccc1` (single isomer, unassigned) [Compound 28], the “INHIBITION 250 uM RECEPTOR aVb3 SUBSTRATE FIBRINOGEN” value at αVβ3 integrin was “+++ (81% to 100% inhibition at 250 micromolar)”. Further, on αllbβ3 integrin, the “INHIBITION @ 250 uM RECEPTOR allBb3 SUBSTRATE FIBRINOGEN” value is “+ (36% to 60% inhibition at 250 micromolar)” and the “INHIBITION 250 uM RECEPTOR allBb3 SUBSTRATE VITRONECTIN” value was “+++ (81% to 100% inhibition at 250 micromolar)”.
